In ChEMBL document CHEMBL1201862, “PubChem BioAssay data set” (2004):
The source made the active and inactive calls.

How the values were obtained:
Troponin, cardiac muscle = Troponin, cardiac muscle (Homo sapiens, UniProt P19429+P45379+P63316); assay: Fluorescence-based biochemical high throughput dose response assay for activators of the calcium sensitivity of cardiac Regulated Thin Filaments (RTF). [Related pubchem assays (depositor defined):AID493008, AID493018, AID504382, AID504383]; format: protein-complex assay
[1] = molecular target: T1, Tyrosine-protein phosphatase non-receptor type 7 (Homo sapiens, UniProt P35236); format: functional
T1 sequence (P35236 whole entry): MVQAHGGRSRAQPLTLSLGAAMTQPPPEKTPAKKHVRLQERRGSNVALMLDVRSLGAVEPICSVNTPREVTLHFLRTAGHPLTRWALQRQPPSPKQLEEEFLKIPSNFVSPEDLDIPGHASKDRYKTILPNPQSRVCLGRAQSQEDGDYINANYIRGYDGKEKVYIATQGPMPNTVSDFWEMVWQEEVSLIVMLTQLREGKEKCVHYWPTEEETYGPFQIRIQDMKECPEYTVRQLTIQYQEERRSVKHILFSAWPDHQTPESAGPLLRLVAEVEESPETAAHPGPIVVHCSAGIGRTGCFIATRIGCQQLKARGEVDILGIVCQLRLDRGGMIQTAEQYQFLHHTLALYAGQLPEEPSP

[2] = molecular target: T2, Tyrosine-protein phosphatase non-receptor type 22 (Homo sapiens, UniProt Q9Y2R2); format: functional
T2 sequence (Q9Y2R2 whole entry): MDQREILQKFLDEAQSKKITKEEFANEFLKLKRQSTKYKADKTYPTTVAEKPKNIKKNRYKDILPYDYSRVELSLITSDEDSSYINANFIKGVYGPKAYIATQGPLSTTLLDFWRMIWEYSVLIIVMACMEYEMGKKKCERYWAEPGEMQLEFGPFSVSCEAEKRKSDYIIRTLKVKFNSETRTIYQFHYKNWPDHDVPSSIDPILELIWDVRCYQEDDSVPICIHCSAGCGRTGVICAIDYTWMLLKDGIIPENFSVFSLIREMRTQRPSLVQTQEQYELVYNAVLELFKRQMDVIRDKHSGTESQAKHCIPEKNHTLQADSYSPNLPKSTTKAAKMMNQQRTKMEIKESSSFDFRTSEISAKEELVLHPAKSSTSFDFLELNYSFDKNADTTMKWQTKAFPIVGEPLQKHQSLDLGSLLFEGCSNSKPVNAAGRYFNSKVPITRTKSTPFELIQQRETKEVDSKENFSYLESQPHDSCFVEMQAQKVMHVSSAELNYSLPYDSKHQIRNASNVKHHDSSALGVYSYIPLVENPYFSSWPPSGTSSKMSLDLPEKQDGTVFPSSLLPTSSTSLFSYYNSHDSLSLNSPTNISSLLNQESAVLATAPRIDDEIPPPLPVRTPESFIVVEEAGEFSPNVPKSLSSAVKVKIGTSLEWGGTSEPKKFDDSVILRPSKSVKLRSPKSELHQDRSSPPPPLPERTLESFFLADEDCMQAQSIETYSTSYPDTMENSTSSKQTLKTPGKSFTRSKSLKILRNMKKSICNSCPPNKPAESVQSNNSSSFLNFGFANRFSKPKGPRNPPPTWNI

[3] = molecular target: T2, Tyrosine-protein phosphatase non-receptor type 22; format: functional; remark: listed apart in the source
Bcl-2-related protein A1 = molecular target: T3, Bcl-2-related protein A1 (Mus musculus, UniProt Q07440); format: functional;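 also: confirmatory dose–response counterscreen on Bfl-1, used to check hits from a UBC13 polyubiquitin inhibitor campaign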
T3 sequence (Q07440 whole entry): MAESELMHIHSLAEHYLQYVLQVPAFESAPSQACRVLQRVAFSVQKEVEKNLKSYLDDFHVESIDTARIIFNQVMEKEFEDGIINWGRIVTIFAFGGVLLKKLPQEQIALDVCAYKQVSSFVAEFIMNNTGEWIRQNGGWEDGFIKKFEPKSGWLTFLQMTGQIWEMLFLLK

[4] = molecular target: T4, Ubiquitin-conjugating enzyme E2 N (Homo sapiens, UniProt P61088); format: functional
T4 sequence (P61088 whole entry): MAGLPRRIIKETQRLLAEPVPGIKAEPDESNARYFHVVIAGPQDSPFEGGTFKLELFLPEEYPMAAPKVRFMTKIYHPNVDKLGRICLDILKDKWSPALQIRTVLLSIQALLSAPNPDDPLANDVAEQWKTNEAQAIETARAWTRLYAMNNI

[5] = molecular target: T4, Ubiquitin-conjugating enzyme E2 N; format: functional; remark: listed apart in the source
[6] = molecular target: T5, Voltage-gated N-type calcium channel alpha-1B subunit/Amyloid beta A4 precursor protein-binding family A member 1 (Homo sapiens, UniProt Q00975+Q02410); format: protein assay
T5 sequence (Q00975 whole entry): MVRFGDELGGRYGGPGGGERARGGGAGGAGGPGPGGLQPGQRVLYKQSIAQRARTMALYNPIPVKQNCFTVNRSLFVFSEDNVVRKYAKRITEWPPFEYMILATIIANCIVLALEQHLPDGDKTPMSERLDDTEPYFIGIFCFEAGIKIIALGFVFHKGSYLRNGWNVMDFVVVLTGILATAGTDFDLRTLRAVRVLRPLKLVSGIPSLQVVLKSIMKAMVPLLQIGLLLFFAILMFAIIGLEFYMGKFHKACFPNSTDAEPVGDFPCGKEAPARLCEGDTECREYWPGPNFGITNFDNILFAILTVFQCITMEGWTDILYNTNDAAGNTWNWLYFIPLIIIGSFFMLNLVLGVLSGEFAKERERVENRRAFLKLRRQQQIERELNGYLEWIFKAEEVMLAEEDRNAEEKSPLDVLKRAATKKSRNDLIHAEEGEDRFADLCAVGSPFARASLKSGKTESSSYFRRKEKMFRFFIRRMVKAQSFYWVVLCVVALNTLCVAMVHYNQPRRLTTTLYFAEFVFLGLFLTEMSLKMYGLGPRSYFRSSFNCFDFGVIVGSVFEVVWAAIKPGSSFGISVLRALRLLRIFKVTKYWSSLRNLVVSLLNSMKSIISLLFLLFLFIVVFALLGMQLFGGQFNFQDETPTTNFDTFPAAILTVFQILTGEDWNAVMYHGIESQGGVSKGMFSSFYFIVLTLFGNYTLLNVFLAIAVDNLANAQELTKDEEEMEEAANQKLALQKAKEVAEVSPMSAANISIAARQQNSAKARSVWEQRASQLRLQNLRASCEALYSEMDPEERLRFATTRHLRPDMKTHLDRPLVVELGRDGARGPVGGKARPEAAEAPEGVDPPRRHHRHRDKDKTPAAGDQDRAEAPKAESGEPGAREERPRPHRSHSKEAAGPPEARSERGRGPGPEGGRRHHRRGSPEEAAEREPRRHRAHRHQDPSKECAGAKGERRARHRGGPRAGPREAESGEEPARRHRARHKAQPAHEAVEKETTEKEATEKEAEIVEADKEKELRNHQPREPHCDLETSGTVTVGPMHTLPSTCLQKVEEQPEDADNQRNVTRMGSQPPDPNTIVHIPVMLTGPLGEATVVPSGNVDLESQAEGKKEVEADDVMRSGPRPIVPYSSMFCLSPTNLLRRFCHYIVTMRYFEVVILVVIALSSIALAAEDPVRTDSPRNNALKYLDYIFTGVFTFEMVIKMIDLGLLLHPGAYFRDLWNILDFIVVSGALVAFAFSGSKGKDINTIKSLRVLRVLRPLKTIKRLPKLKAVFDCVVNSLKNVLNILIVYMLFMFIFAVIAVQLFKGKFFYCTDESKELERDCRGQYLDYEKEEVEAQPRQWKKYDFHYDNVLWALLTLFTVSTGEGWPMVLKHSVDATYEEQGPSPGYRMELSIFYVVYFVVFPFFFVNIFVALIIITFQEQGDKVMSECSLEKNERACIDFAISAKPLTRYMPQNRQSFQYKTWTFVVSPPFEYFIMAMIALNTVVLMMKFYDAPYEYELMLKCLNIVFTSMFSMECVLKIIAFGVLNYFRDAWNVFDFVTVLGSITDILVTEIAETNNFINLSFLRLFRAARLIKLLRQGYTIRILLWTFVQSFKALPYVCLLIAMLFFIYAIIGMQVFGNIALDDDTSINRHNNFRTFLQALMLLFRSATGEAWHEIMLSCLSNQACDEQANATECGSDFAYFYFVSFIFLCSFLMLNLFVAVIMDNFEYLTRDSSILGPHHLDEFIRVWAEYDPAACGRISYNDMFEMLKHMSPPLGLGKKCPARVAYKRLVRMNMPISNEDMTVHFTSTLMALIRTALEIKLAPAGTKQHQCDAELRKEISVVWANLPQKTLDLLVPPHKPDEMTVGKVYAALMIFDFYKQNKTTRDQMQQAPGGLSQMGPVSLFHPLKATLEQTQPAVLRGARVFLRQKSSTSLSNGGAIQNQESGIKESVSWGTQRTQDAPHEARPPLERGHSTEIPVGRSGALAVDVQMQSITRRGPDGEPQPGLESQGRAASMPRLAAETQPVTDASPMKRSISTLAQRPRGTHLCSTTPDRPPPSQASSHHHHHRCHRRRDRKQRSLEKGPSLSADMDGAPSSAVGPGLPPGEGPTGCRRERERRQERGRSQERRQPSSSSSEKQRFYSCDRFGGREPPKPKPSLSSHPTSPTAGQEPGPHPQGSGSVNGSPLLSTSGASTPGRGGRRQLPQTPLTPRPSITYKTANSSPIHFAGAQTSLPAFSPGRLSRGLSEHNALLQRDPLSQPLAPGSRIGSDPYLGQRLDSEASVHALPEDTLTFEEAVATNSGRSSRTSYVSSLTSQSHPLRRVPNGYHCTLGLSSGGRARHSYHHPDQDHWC
T5 sequence (Q02410 whole entry): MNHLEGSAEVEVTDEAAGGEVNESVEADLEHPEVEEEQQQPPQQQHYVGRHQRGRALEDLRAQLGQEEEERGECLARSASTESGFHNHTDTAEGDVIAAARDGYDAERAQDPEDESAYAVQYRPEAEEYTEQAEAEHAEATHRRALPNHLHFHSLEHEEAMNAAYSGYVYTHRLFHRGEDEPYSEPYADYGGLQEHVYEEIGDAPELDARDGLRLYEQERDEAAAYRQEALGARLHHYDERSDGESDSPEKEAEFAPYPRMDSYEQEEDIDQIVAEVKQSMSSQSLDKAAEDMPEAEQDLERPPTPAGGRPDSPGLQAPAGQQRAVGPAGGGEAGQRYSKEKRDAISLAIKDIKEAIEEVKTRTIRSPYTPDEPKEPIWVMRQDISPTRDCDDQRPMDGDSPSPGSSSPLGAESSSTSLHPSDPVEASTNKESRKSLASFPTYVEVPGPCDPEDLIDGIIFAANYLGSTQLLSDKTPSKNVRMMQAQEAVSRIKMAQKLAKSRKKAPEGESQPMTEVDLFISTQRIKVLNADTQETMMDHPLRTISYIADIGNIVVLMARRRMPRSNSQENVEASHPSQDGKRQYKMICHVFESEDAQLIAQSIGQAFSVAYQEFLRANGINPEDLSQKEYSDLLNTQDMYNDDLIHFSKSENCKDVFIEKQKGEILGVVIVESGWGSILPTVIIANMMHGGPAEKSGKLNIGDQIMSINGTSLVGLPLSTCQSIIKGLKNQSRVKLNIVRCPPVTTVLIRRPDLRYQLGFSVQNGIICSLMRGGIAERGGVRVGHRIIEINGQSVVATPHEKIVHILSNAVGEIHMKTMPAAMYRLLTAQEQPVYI

[7] = molecular target: T5, Voltage-gated N-type calcium channel alpha-1B subunit/Amyloid beta A4 precursor protein-binding family A member 1; format: protein assay; remark: listed apart in the source
Hexokinase HKDC1 = molecular target: T6, Hexokinase HKDC1 (Homo sapiens, UniProt Q2TB90); assay: HKDC1 hexokinase activators, dose response, biochemical, W721R variant (AID 504730); format: functional
T6 sequence (Q2TB90 whole entry): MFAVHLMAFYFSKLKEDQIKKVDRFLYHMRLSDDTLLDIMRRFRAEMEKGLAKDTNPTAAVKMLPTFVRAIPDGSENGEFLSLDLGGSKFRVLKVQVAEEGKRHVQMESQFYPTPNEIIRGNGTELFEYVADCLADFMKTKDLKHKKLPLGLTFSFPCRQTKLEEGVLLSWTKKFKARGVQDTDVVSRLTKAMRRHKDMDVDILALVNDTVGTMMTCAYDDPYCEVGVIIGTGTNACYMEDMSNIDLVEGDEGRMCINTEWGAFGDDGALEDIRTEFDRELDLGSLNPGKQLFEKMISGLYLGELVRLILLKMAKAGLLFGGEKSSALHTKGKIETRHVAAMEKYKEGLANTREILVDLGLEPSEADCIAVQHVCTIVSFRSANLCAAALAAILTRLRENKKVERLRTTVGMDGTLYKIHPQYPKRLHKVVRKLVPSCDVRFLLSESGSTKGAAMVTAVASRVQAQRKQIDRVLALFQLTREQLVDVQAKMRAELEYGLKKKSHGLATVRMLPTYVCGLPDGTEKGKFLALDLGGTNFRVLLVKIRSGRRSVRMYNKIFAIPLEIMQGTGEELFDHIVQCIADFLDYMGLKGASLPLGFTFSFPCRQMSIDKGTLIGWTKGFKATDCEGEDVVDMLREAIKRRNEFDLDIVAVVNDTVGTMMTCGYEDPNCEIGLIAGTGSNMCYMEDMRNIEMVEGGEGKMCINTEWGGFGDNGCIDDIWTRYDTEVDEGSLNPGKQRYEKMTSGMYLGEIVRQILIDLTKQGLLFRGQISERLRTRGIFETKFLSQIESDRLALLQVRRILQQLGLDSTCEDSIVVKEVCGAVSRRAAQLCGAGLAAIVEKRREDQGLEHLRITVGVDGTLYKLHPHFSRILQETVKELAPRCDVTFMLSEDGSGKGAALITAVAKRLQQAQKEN

[8] = inhibitors of intracellular T. cruzi replication, confirmation, NIH3T3 host cells, beta-gal luminescence (AID 2044); format: functional, cell-based;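 also: intracellular parasites grown in NIH/3T3 mouse fibroblasts as host cells; luminescent beta-galactosidase reporter signal from transgenic T. cruzi replicating inside host cells; inhibitors lower the luminescence signal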
Streptococcus = assay: Group A Streptococcus viability loss, dose response, counter-screen for streptokinase expression inhibitor project, luminescence, BacTiterGlo (AID 1915); format: functional, organism-based;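 also: potency for reduction of bacterial viability or growth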
[9] = Shn3 3'UTR reporter inhibitors, dose response, cell-based, Clone20 osteoblasts, firefly luciferase, cherry-picked (AID 624132); format: functional;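 also: firefly luciferase luminescence from reporter carrying the Shn3 3'UTR in osteoblasts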
Hexokinase-1 = molecular target: T7, Hexokinase-1 (Homo sapiens, UniProt P19367); assay: hexokinase 1 activators, dose response, selectivity assay for HKDC1 activator project, biochemical (AID 504762); format: functional
T7 sequence (P19367 whole entry): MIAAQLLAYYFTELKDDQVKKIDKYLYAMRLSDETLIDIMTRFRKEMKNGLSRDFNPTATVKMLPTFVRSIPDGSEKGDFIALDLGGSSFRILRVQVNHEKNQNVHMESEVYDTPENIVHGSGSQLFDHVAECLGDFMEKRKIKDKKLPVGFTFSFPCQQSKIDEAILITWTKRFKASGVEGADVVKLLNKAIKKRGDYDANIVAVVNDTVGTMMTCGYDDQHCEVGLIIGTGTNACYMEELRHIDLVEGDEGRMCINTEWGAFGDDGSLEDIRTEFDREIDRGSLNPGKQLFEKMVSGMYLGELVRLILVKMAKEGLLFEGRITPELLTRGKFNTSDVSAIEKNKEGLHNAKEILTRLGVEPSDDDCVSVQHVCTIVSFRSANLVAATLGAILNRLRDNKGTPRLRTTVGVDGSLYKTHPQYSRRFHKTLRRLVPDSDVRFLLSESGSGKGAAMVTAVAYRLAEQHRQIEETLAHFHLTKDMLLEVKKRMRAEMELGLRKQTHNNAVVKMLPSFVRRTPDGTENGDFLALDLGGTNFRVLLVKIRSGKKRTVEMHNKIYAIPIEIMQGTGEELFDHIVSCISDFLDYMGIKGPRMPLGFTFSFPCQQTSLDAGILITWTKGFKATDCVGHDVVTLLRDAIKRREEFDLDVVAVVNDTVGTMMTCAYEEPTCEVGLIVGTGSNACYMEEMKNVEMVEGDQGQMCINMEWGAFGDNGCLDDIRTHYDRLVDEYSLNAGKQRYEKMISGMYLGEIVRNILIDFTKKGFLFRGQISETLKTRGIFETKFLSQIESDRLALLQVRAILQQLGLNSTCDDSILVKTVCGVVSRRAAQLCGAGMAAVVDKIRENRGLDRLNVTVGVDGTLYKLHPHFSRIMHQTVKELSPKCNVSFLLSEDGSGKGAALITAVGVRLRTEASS

[10] = molecular target: Heat shock protein HSP 90-alpha (Homo sapiens, UniProt P07900); format: functional, organism-based
[11] = control 3'UTR Renilla luciferase suppression, dose response, counter-screen for Shn3 inhibitor project, cell-based, Clone20-Shn3RL, cherry-picked (AID 624133); format: functional
[12] = HepG2 cell cytotoxicity, dose response, cytotoxicity control for Shn3 inhibitor project, CellTiter-Glo, cherry-picked (AID 624134); format: functional, cell-based
[13] = cytotoxicity toward NIH3T3 fibroblasts, dose response, counter-screen, cell-based, ATP luminescence, mouse fibroblasts (AID 2010); format: functional;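 also: cells exposed to compound for about 90 hours before reading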
[14] = tested on: Streptococcus sp. 'group A'; assay: growth inhibition of control SK(-) GAS strain, dose response, counter-screen for streptokinase expression inhibitor project, luminescence, kanamycin, BacTiterGlo, confirmation (AID 1900); format: functional, organism-based
[15] = molecular target: G-protein coupled receptor 55 (Homo sapiens, UniProt Q9Y2T6); assay: GPR55 antagonists blocking LPI-driven arrestin recruitment, primary screen, imaging, U2OS, beta-arrestin-GFP, LPI agonist (AID 2013); format: functional;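 also: antagonist potency measured as reduced agonist-driven arrestin aggregation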
Sequence of G-protein coupled receptor 55 (Q9Y2T6 whole entry): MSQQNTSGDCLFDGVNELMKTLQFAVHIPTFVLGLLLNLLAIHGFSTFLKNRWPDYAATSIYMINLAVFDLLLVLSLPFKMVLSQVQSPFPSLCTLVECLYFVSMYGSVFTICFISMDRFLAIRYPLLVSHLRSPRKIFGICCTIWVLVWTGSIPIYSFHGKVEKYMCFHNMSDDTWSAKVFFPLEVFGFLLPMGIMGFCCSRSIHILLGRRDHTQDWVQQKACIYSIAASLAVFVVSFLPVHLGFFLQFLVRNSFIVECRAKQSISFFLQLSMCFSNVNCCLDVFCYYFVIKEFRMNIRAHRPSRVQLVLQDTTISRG

[16] = insulin promoter down-regulators in MIN6 cells, imaging, high-content screening, mouse beta cells (AID 1628); format: functional
[17] = cytotoxicity in MIN6 insulinoma cells, dose response, cytotoxicity control, cell-based, mouse insulinoma (AID 2122); format: functional;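 also: confirmatory high-throughput counterscreen run to flag cytotoxic compounds; mouse MIN-6 beta cells carrying an insulin promoter eGFP reporter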
INS1 = assay: beta cell apoptosis inhibitors, cytokine rescue, dose response, luminescence, retest (AID 449756); format: functional, cell-based; settings: Rattus norvegicus;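 also: cell death triggered by IL-1 beta plus TNF-alpha plus IFN-gamma mixture; protective hits raise ATP signal compared with cytokine alone wells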
[18] = molecular target: Luciferin 4-monooxygenase (Photinus pyralis, UniProt P08659); assay: Counter Screen for Luciferase-based Assay Positives. [Related pubchem assays: 620, 618, 411 ]
Sequence of Luciferin 4-monooxygenase (P08659 whole entry): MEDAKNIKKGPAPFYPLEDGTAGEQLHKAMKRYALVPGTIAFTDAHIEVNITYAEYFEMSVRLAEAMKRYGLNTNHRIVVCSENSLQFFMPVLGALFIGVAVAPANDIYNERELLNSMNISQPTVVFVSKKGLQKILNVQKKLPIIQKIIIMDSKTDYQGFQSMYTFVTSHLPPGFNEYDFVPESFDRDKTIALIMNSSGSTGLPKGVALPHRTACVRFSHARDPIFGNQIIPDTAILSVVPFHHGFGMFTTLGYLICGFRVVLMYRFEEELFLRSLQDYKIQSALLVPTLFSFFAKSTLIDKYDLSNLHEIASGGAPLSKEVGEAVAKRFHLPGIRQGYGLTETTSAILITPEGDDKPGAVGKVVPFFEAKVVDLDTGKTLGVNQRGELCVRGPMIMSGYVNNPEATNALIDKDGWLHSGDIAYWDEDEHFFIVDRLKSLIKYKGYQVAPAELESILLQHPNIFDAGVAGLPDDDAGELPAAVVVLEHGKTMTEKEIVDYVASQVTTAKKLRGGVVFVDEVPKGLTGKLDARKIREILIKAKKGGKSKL

Cytochrome P450 2D6 = Cytochrome P450 2D6 (Homo sapiens, UniProt P10635);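 also: CYP2D6 member of a cytochrome P450 panel assay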
Sequence of Cytochrome P450 2D6 (P10635 whole entry): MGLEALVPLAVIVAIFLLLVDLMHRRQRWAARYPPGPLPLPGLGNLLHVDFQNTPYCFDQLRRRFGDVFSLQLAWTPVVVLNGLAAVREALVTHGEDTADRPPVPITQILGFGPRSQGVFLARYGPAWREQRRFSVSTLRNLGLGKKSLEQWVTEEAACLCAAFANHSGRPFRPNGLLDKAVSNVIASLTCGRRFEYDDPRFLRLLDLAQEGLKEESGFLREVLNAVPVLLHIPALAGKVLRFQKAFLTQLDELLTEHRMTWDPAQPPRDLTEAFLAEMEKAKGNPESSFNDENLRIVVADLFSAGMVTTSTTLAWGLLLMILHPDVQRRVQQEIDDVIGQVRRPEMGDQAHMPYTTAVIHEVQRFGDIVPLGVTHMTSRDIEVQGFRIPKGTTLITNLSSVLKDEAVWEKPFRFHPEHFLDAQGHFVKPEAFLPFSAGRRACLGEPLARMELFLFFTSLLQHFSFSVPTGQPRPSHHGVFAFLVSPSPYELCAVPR

HT-1080 = assay: cytotoxicity in HT1080 fibrosarcoma cells, cell-based, fluorescence readout (AID 620); format: functional; settings: Homo sapiens

c1ccc(Cn2c(-c3ccccc3)nc3nc4ccccc4nc32)cc1
EC50 (Troponin, cardiac muscle): > 71.5 µM (inactive)

COc1ccc(OCC(=O)N/N=C/c2ccc(OC)c(OC)c2C(=O)O)cc1
IC50 [1]: > 79.4 µM (inactive)
IC50 [2]: > 79.4 µM (inactive)
IC50 [3]: > 79.4 µM (inactive)

CC(=O)N(C)c1ccc(C(O)(C(F)(F)F)C(F)(F)F)cc1
EC50 (Troponin, cardiac muscle): > 71.5 µM (inactive)

Cc1onc(-c2ccccc2)c1C(=O)Nc1cccc2nsnc12
IC50 (Bcl-2-related protein A1): > 20 µM (inactive)
IC50 [4]: 15.6 µM (active)
IC50 [5]: > 20 µM (inactive)

O=C(NCCO)c1cc(-c2cc(C(=O)NCCO)c3ccccc3n2)nc2ccccc12
IC50 [6]: 6.83 µM (active)
IC50 [7]: > 50 µM (inactive)

Cc1cc2ncc(Cl)nc2cc1C
IC50 [1]: > 79.4 µM (inactive)
IC50 [2]: > 79.4 µM (inactive)
IC50 [3]: > 79.4 µM (inactive)

O=C(CCCCCn1c(=O)[nH]c2ccccc2c1=O)NCCc1c[nH]c2ccccc12
IC50 (Bcl-2-related protein A1): > 20 µM (inactive)
IC50 [4]: 19.3 µM (active)
IC50 [5]: 18.1 µM (active)

COc1ccc(/C=C/C(=O)NC(=S)NNC(=O)c2cnccn2)cc1
EC50 (Hexokinase HKDC1): 2.23 µM (active)
EC50 [8]: 0.955 µM (active)
EC50 (Streptococcus): 6.88 µM (active)
AC50 [9]: 15.4 µM (active)
EC50 (Hexokinase-1): > 80 µM (inactive)
AC50 [10]: 1.95 µM (active)
AC50 [11]: 2.05 µM (active)
AC50 [12]: 42.4 µM (active)
EC50 [13]: 15.2 µM (active)
EC50 [14]: 4.07 µM (active)

CC(C)(C)c1ccc(CN2C(=O)CN=C(c3ccccc3)c3ccccc32)cc1
IC50 [15]: 3.35 µM (active)

Cc1cc(O)ccc1C1(c2ccc(O)cc2C)OC(=O)c2ccccc21
IC50 [15]: 3.46 µM (active)

Nc1ccc(Br)cc1-c1nc2ccccc2nc1O
IC50 [16]: < 0.25 µM (active)
IC50 [17]: < 0.25 µM (active)
AC50 (INS1): 0.63 µM (active)

CCNC1=NN=C(c2ccc(C)cc2)CS1
EC50 (Hexokinase HKDC1): 51.6 µM (inactive)
EC50 [18]: 1.03 µM (active)
EC50 (Hexokinase-1): 63.1 µM (inactive)
AC50 (Cytochrome P450 2D6): 14.1 µM (inconclusive)
EC50 (HT-1080): > 50 µM (not active)
